For data set [1], the target named is T1, TDP1 (Homo sapiens, UniProt Q9NUW8).
T1 construct: inferred from the pET 16B vector and purification on Ni-chelating resin; made in house
The following applies: Figure 2, known inhibitor; cited from earlier work.

Data set [2] has as its target T1, TDP1. Description: TDP1 assay: recombinant TDP1 with fluorescent biosensor (FAM/BHQ1), cell-free. The format is biochemical. Conditions: recombinant TDP1 1.5 nM, biosensor 50 nM, 26 °C. Here is the method:
The primary screening of the inhibitory activities against TDP1 was performed using an in vitro cell-free system involving the recombinant TDP1 and a fluorescent reporter probe as previously described.
The recombinant TDP1 was purified to homogeneity by chromatography on Ni-chelating resin and phosphocellulose P11 as previously described, using plasmid pET 16B-TDP1, kindly provided by Dr. K.W. Caldecott (University of Sussex, United Kingdom). The TDP1 activity measurements were carried out as described. Briefly, TDP1-biosensor with fluorofore (FAM) at the 5′-end and a fluorescence quencher (BHQ1) at the 3′-end at a final concentration of 50 nM were incubated in a 200 μL volume that contained TDP1 buffer (50 mM Tris-HCl pH 8.0, 50 mM NaCl, and 7 mM β-mercaptoethanol) supplemented with purified 1.5 nM TDP1 and various concentrations of inhibitor. Fluorescence measurements (Ex485/Em520 nm) were carried out during the linear phase of the reaction (from 0 to 8 min for TDP1) every 55 sec. The reactions were incubated at a constant temperature of 26 °C in a POLARstar OPTIMA fluorimeter (BMG LABTECH, GmbH). The influence of compounds was evaluated by comparing the fluorescence increase rate in the presence of compounds with that of DMSO control wells. The data were imported into the MARS Data Analysis 2.0 program (BMG LABTECH), and the IC50 values (the concentration of a compound required to reduce the enzyme activity by 50%) were calculated.

In a further data set the test system is T98G glioma cells. As to the kind of experiment: Cytotoxicity (MTT) alone and in combination with temozolomide. It is filed as cell-based. The protocol:
(§1) Since we used the T98G glioblastoma cell line for the first time for our experiments, we first attempted to perform the cytotoxicity study in a range of concentrations from 10 to 100 µM, as we did previously with the TDP1 inhibitory compounds when working with the other cell lines. However, the cytotoxicity at 50 and 100 µM of our compounds turned out to be rather high in the T98G cell line. We then measured the cytotoxicity of individual TDP1 inhibitors at 2.5, 5, 10, and 25 µM. The studied compounds were prepared as 50 mM stock solutions in DMSO and added to T98G glioma cells at 2.5 µM to 25 µM concentrations, either individually or in combination with 1000 or 2000 µM of TMZ. […] They were therefore discarded from the later cytotoxicity studies.
Individual TDP1 inhibitors were prepared as 50 mM stock solutions in DMSO and were added to the cells at 2.5, 5, 10, or 25 μM. Temozolomide was prepared as 200 mM stock solution in DMSO and was added at 1 mM or 2 mM concentrations, either alone or in combination with TDP1 inhibitors. T98G and SNB19 glioma cells were maintained in DMem/F12 medium supplemented with 10% foetal bovine serum, l-glutamine, and penicillin/streptomycin and were split at 10,000 cells/well into the 96-well plates for cytotoxicity experiments. The drugs or drug combinations were incubated with cells for 72 h, then the MTT reagent (3-(4,5-dimethylthiazol-2-yl)-2,5-diphenyltetrazolium bromide) was added for 4 h. The produced purple formazan dye reporting the activity of cellular oxireductases was dissolved overnight in 10% solution of acidified SDS and the absorbance was measured using a Tecan plate reader. Each concentration of individual substance or each drug combination was tested in triplicate. The data obtained were processed using MS Excel software and presented as histogram plots.

Data set [3] is described as follows: Solubility observations (stock solutions, solvents, cell growth medium). The following applies: light microscopy. The format is physicochemical. Here is the method: as §1

“Also recorded” adds a separate entry of the source. Like-named read-outs stand apart in the source and are kept apart here.

Usually IC50 stands for the concentration at which inhibition is half-maximal. The melting point is the temperature, or range, at which the solid turns liquid.

T1 sequence (Q9NUW8 whole entry): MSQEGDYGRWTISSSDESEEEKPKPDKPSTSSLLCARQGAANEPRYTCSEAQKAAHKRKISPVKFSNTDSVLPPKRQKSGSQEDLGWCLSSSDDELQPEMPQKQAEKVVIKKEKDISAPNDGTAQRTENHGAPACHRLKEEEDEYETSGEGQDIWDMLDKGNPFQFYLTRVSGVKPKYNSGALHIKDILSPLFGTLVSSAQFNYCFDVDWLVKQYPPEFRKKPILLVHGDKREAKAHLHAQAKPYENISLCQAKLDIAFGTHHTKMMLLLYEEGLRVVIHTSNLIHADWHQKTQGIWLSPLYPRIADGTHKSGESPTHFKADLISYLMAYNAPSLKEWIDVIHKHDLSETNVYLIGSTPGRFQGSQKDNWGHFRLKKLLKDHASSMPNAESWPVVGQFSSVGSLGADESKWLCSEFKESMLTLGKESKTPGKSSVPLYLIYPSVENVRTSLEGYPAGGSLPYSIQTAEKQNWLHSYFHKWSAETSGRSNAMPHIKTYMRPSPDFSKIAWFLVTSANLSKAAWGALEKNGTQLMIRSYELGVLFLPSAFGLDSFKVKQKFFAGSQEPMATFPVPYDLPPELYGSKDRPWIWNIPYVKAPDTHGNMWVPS

Turning to `CC(=O)C1=C(O)C=C2Oc3c(-c4csc(N/N=C/CC(C)CCC=C(C)C)n4)c(O)c(C)c(O)c3[C@@]2(C)C1=O` (stereo partly shown) [A], the IC50 on TDP1 [1] is 10.3 ± 0.4 nM.

As for `CC(C)=CCC/C(C)=C/COc1ccc2c(-c3ccc(F)cc3)cc(=O)oc2c1` [C], the IC50 at TDP1 [1] was 500 nM. In the case of `CC(C)c1ccc2c(c1)CC[C@H]1[C@](C)(CNC(=O)NC34CC5CC(CC(C5)C3)C4)CCC[C@]21C` [Compound 1, N-abieta-8,11,13-trien-18-yl-N’-1-adamantylurea], at TDP1 [2], the IC50 turned out to be 190 ± 30 nM. `CC(C)c1ccc2c(c1)CC[C@H]1[C@](C)(CNC(=O)NC3C4CC5CC(C4)CC3C5)CCC[C@]21C` (stereo partly shown) [Compound 2, N-abieta-8,11,13-trien-18-yl-N’-2-adamantylurea] had a melting point of 150 °C. For the same molecule, the IC50 at TDP1 [2] was 800 ± 200 nM. For the same molecule, the “sensitization of glioma T98G cells to TMZ” value with T98G glioma cells (combination with TMZ) was “most effective”. As for `CC(C)c1ccc2c(c1)CC[C@H]1[C@](C)(CNC(=S)NC34CC5CC(CC(C5)C3)C4)CCC[C@]21C` [Compound 3, N-abieta-8,11,13-trien-18-yl-N’-1-adamantylthiourea], the half-maximal inhibitory concentration (IC50) on TDP1 [2] is 1500 ± 500 nM.

Regarding `CC(C)c1ccc2c(c1)CC[C@H]1[C@](C)(CNC(=S)NC3C4CC5CC(C4)CC3C5)CCC[C@]21C` (stereo partly shown) [Compound 4, N-abieta-8,11,13-trien-18-yl-N’-2-adamantylthiourea], at TDP1 [2], the IC50 stood at 670 ± 190 nM. On to `CC(C)c1ccc2c(c1)CC[C@H]1[C@](C)(CNC(N)=O)CCC[C@]21C` [Compound 5, N-abieta-8,11,13-trien-18-ylurea], for which, at TDP1 [2], the IC50 is above 15000 nM and the “IC50 (TDP1)” value is reported as “no activity; also recorded: failed to inhibit TDP1”. As for `CC(C)c1ccc2c(c1)CC[C@H]1[C@](C)(CNC(=O)C34CC5CC(CC(C5)C3)C4)CCC[C@]21C` [Compound 6, N-abieta-8,11,13-trien-18-yladamantan-1-carboxamide], at TDP1 [2], the IC50 amounted to 940 ± 180 nM.

As for `CC(C)c1ccc2c(c1)CC[C@H]1[C@](C)(CNC(=O)C3C4CC5CC(C4)CC3C5)CCC[C@]21C` (stereo partly shown) [Compound 7, N-abieta-8,11,13-trien-18-yladamantan-2-carboxamide], the IC50 on TDP1 [2] came out at 1800 ± 400 nM. Further, the “behaviour of stock solution dissolved in cell growth medium” value in data set [3] is recorded as “formed visible micelles”. On the same counts, the results for `CC(C)c1ccc2c(c1)CC[C@H]1[C@](C)(CNC(=S)C34CC5CC(CC(C5)C3)C4)CCC[C@]21C` [Compound 8, N-abieta-8,11,13-trien-18-yladamantan-1-carbothioamide] are 2300 ± 800 nM and “formed visible micelles”.

Take `CC(C)c1ccc2c(c1)CC[C@H]1[C@](C)(NC(=O)NC34CC5CC(CC(C5)C3)C4)CCC[C@]21C` [Compound 9, N-1-adamantyl-N’-[(1R,4aS,10aR)-7-isopropyl-1,4a-dimethyl-1,2,3,4,4a,9,10,10a-octahydrophenanthren-1-yl]urea]: the IC50 on TDP1 [2] stood at 570 ± 160 nM. On the same count and under the same terms, under `CC(C)c1ccc2c(c1)CC[C@H]1[C@](C)(NC(=O)NC3C4CC5CC(C4)CC3C5)CCC[C@]21C` (stereo partly drawn) [Compound 10, N-2-adamantyl-N’-[(1R,4aS,10aR)-7-isopropyl-1,4a-dimethyl-1,2,3,4,4a,9,10,10a-octahydrophenanthren-1-yl]urea] stands 590 ± 150 nM.

On to `CC(C)C1=CC2=CC[C@H]3[C@](C)(NC(=O)NC45CC6CC(CC(C6)C4)C5)CCC[C@]3(C)C2CC1` (stereo partly drawn) [Compound 11, N-1-adamantyl-N’-[(1R,4aR,10aR)-7-isopropyl-1,4a-dimethyl-1,2,3,4,4a,4b,5,6,10,10a-decahydrophenanthren-1-yl]urea], for which, at TDP1 [2], the IC50 was found to be 1700 ± 600 nM. Turning to `CC(C)C1=CC2=CC[C@H]3[C@](C)(NC(=O)NC4C5CC6CC(C5)CC4C6)CCC[C@]3(C)C2CC1` (stereo partly drawn) [Compound 12, N-2-adamantyl-N’-[(1R,4aR,10aR)-7-isopropyl-1,4a-dimethyl-1,2,3,4,4a,4b,5,6,10,10a-decahydrophenanthren-1-yl]urea], the IC50 at TDP1 [2] came to 1400 ± 300 nM. `CC(C)CCCC(C)CCOC(=O)C12CC3CC(CC(C3)C1)C2` (stereo not shown) [E]: at TDP1 [1], the IC50 is 920 nM. Regarding `Cn1nnc2c(C(N)=O)ncn2c1=O` [TMZ, temozolomide], in the data set with T98G glioma cells (TMZ alone 1000 µM, 72 h, MTT), the “cells surviving the treatment” value is on record as ~ 95%. Besides, in the data set on T98G glioma cells (TMZ alone 2000 µM, 72 h, MTT), the “inhibition of cell viability” value is recorded as ~ 40%.

Values taken from publication PMC8147275, “Design, Synthesis, and Molecular Docking Study of New Tyrosyl-DNA Phosphodiesterase 1 (TDP1) Inhibitors Combining Resin Acids and Adamantane Moieties” (Pharmaceuticals, 2021).
